According to US10487093B2, “Heterocyclic compounds, in particular 2-oxo-4,4,5,5,6,6,7,7-octahydrobenzoxazole derivatives, and their use as antibacterial compounds” (priority 2016, dated 2019):
Converted amounts (≈) assume the structure as drawn.

Legend:
[1] = tested on: Acinetobacter baumannii NCTC 13420; experiment: MIC, broth microdilution (CLSI) versus planktonic bacteria; assay type: cell-based; details: NCTC13420; Acinetobacter baumannii NCTC 13420; 16-20 h; mode of three independent experiments; read-out: MIC, Ab NCTC 13420
[2] = tested on: Acinetobacter baumannii ATCC 19606; experiment: as above; assay type: cell-based; details: ATCC19606; Acinetobacter baumannii ATCC 19606; 16-20 h; mode of three independent experiments; read-out: MIC, Ab ATCC 19606
[3] = tested on: Enterobacter cloacae NCTC 13406; experiment: as above; assay type: cell-based; details: NCTC13406; Enterobacter cloacae NCTC 13406; 16-20 h; mode of three independent experiments; read-out: MIC, Ecl NCTC 13406
[4] = tested on: Escherichia coli ATCC 25922; experiment: as above; assay type: cell-based; details: ATCC25922; Escherichia coli ATCC 25922; 16-20 h; mode of three independent experiments; read-out: MIC, Ec ATCC 25922
E. coli ATCC BAA-2452 = experiment: as above; assay type: cell-based; details: Escherichia coli ATCC BAA-2452; 16-20 h; mode of three independent experiments; read-out: MIC, Ec ATCC BAA 2452
E. coli NCTC 13476 = experiment: as above; assay type: cell-based; details: NCTC13476; Escherichia coli NCTC 13476; 16-20 h; mode of three independent experiments; read-out: MIC, Ec NCTC 13476
E. coli MG1655 = experiment: as above; assay type: cell-based, Escherichia coli; details: Escherichia coli, MG1655, read-out: MIC, Ec MG1655 WT
[5] = tested on: Haemophilus influenzae ATCC 49247; experiment: as above; assay type: cell-based; details: ATCC49247; Haemophilus influenzae ATCC 49247; 16-20 h; mode of three independent experiments; read-out: MIC, Hi ATCC 49247
[6] = tested on: Pseudomonas aeruginosa ATCC 27853; experiment: as above; assay type: cell-based; details: ATCC27853; Pseudomonas aeruginosa ATCC 27853; 16-20 h; mode of three independent experiments; read-out: MIC, Pa ATCC 27853
[7] = tested on: Staphylococcus aureus ATCC 29213; experiment: as above; assay type: cell-based; details: ATCC29213; Staphylococcus aureus ATCC 29213; 16-20 h; mode of three independent experiments; read-out: MIC, Sa ATCC 29213
[8] = tested on: Streptococcus pneumoniae ATCC 49619; experiment: as above; assay type: cell-based; details: ATCC49619; Streptococcus pneumoniae ATCC 49619; 16-20 h; mode of three independent experiments; read-out: MIC, Sp ATCC 49619
E. coli MG1655 S83L = assay type: cell-based, Escherichia coli; details: compared to the isogenic parent strain E. coli MG1655; S83L mutation on DNA gyrase subunit GyrA
E. coli MG1655 D87G = assay type: cell-based, Escherichia coli; details: compared to the isogenic parent strain E. coli MG1655; D87G mutation on DNA gyrase subunit GyrA
[9] = tested on: human hepatic cell line (HepG2 ATCC HB-8065); experiment: Human cell viability assay (CellTiter-Glo); details: Homo sapiens, HepG2, 24 h, read-out: IC50 (μg/mL) HepG2

Compound | MIC [1] | MIC [2] | MIC [3] | MIC [4] | MIC (E. coli ATCC BAA-2452) | MIC (E. coli NCTC 13476) | MIC (E. coli MG1655) | MIC [5] | MIC [6] | MIC [7] | MIC [8] | Fold increase in MIC, E. coli MG1655 S83L (E. coli MG1655 S83L) | Fold increase in MIC, E. coli MG1655 D87G (E. coli MG1655 D87G) | IC50 [9]
CN(CCn1c(=O)ccc2ccc(C#N)cc21)[C@H]1CC[C@H]2[C@@H](C1)OC(=O)N2c1ccc2c(n1)NC(=O)CO2 [Compound 47, 1-(2-{[(3aS,6S,7aR)-2-oxo-3-{3-oxo-2H,3H,4H-pyrido[3,2-b][1,4]oxazin-6-yl}-octahydro-1,3-benzoxazol-6-yl](methyl)amino}ethyl)-2-oxo-1,2-dihydroquinoline-7-carbonitrile] | < 1 µg/mL | < 1 µg/mL | < 1 µg/mL | < 1 µg/mL | < 1 µg/mL | 1 to 10 µg/mL (≈ 1.94 to 19.4 µM) | < 1 µg/mL | < 1 µg/mL | < 1 µg/mL | < 1 µg/mL | < 1 µg/mL | 2 fold | 1 fold | 10 to 100 µg/mL (≈ 19.4 to 194 µM)
N#Cc1ccc2ncc(=O)n(CCN[C@H]3CC[C@H]4[C@H](C3)OC(=O)N4c3ccc4c(n3)NC(=O)CO4)c2c1 [Compound 64, 4-(2-{[(3aS,6S,7aS)-2-oxo-3-{3-oxo-2H,3H,4H-pyrido[3,2-b][1,4]oxazin-6-yl}-octahydro-1,3-benzoxazol-6-yl]amino}ethyl)-3-oxo-3,4-dihydroquinoxaline-6-carbonitrile] | < 1 µg/mL | 1 to 10 µg/mL (≈ 1.99 to 19.9 µM) | < 1 µg/mL | < 1 µg/mL | < 1 µg/mL | 1 to 10 µg/mL (≈ 1.99 to 19.9 µM) | < 1 µg/mL | < 1 µg/mL | 1 to 10 µg/mL (≈ 1.99 to 19.9 µM) | < 1 µg/mL | < 1 µg/mL | 0.5 fold | 1 fold | 10 to 100 µg/mL (≈ 19.9 to 199 µM)
COc1ccc2ccc(=O)n(CCN[C@H]3CC[C@H]4[C@H](C3)OC(=O)N4c3ncc4c(n3)NC(=O)CO4)c2n1 [Compound 67, 1-(2-{[(3aS,6S,7aS)-2-oxo-3-{7-oxo-6H,7H,8H-pyrimido[5,4-b][1,4]oxazin-2-yl}-octahydro-1,3-benzoxazol-6-yl]amino}ethyl)-7-methoxy-1,2-dihydro-1,8-naphthyridin-2-one] | < 1 µg/mL | 1 to 10 µg/mL (≈ 1.97 to 19.7 µM) | 1 to 10 µg/mL (≈ 1.97 to 19.7 µM) | < 1 µg/mL | 1 to 10 µg/mL (≈ 1.97 to 19.7 µM) | 1 to 10 µg/mL (≈ 1.97 to 19.7 µM) | < 1 µg/mL | < 1 µg/mL | 1 to 10 µg/mL (≈ 1.97 to 19.7 µM) | < 1 µg/mL | < 1 µg/mL | 1 fold | 1 fold | > 100 µg/mL
N#Cc1ccc2ncc(=O)n(CCN[C@@H]3CC[C@@H]4[C@@H](C3)OC(=O)N4c3ccc4c(n3)NC(=O)CO4)c2c1 [Compound 68, 4-(2-{[(3aR,6R,7aR)-2-oxo-3-{3-oxo-2H,3H,4H-pyrido[3,2-b][1,4]oxazin-6-yl}-octahydro-1,3-benzoxazol-6-yl]amino}ethyl)-3-oxo-3,4-dihydroquinoxaline-6-carbonitrile] | < 1 µg/mL | < 1 µg/mL | < 1 µg/mL | < 1 µg/mL | < 1 µg/mL | < 1 µg/mL | < 1 µg/mL | < 1 µg/mL | 1 to 10 µg/mL (≈ 1.99 to 19.9 µM) | < 1 µg/mL | < 1 µg/mL | 1 fold | 1 fold | 10 to 100 µg/mL (≈ 19.9 to 199 µM)
COc1cnc2ccc(=O)n(CCN[C@@H]3CC[C@@H]4[C@@H](C3)OC(=O)N4c3ccc4c(n3)NC(=O)CO4)c2c1 [Compound 69, 1-(2-{[(3aR,6R,7aR)-2-oxo-3-{3-oxo-2H,3H,4H-pyrido[3,2-b][1,4]oxazin-6-yl}-octahydro-1,3-benzoxazol-6-yl]amino}ethyl)-7-methoxy-1,2-dihydro-1,5-naphthyridin-2-one] | < 1 µg/mL | < 1 µg/mL | < 1 µg/mL | < 1 µg/mL | < 1 µg/mL | < 1 µg/mL | < 1 µg/mL | < 1 µg/mL | 1 to 10 µg/mL (≈ 1.97 to 19.7 µM) | < 1 µg/mL | < 1 µg/mL | 1 fold | 1 fold | > 100 µg/mL
COc1cnnc(-c2cccc(CN[C@@H]3CC[C@@H]4[C@@H](C3)OC(=O)N4c3ccc4c(n3)NC(=O)CO4)c2O)c1 [Compound 72, (3aR,6R,7aR)-6-({[2-hydroxy-3-(5-methoxypyridazin-3-yl)phenyl]methyl}amino)-3-{3-oxo-2H,3H,4H-pyrido[3,2-b][1,4]oxazin-6-yl}-octahydro-1,3-benzoxazol-2-one] | < 1 µg/mL | < 1 µg/mL | 1 to 10 µg/mL (≈ 1.93 to 19.3 µM) | < 1 µg/mL | < 1 µg/mL | 1 to 10 µg/mL (≈ 1.93 to 19.3 µM) | < 1 µg/mL | < 1 µg/mL | 1 to 10 µg/mL (≈ 1.93 to 19.3 µM) | < 1 µg/mL | 1 to 10 µg/mL (≈ 1.93 to 19.3 µM) | 0.5 fold | 0.5 fold | 10 to 100 µg/mL (≈ 19.3 to 193 µM)
N#Cc1ccc2ccc(=O)n(CCCN[C@@H]3CC[C@@H]4[C@@H](C3)OC(=O)N4c3ccc4c(n3)NC(=O)CO4)c2c1 [Compound 74, 1-(3-{[(3aR,6R,7aR)-2-oxo-3-{3-oxo-2H,3H,4H-pyrido[3,2-b][1,4]oxazin-6-yl}-octahydro-1,3-benzoxazol-6-yl]amino}propyl)-2-oxo-1,2-dihydroquinoline-7-carbonitrile] | < 1 µg/mL | < 1 µg/mL | < 1 µg/mL | < 1 µg/mL | < 1 µg/mL | < 1 µg/mL | < 1 µg/mL | < 1 µg/mL | < 1 µg/mL | < 1 µg/mL | < 1 µg/mL | 1 fold | 1 fold | 10 to 100 µg/mL (≈ 19.4 to 194 µM)
COc1ccc2ccc(=O)n(CCCN[C@H]3CC[C@H]4[C@H](C3)OC(=O)N4c3ccc4c(n3)NC(=O)CS4)c2n1 [Compound 85, 1-(3-{[(3aS,6S,7aS)-2-oxo-3-{3-oxo-2H,3H,4H-pyrido[3,2-b][1,4]thiazin-6-yl}-octahydro-1,3-benzoxazol-6-yl]amino}propyl)-7-methoxy-1,2-dihydro-1,8-naphthyridin-2-one] | < 1 µg/mL | < 1 µg/mL | < 1 µg/mL | < 1 µg/mL | < 1 µg/mL | < 1 µg/mL | < 1 µg/mL | < 1 µg/mL | 1 to 10 µg/mL (≈ 1.86 to 18.6 µM) | < 1 µg/mL | < 1 µg/mL | 1 fold | 1 fold | 10 to 100 µg/mL (≈ 18.6 to 186 µM)
